{
  "source": "paper PMC7659979",
  "about": "“Discovery and Evaluation of Enantiopure 9H-pyrimido[4,5-b]indoles as Nanomolar GSK-3β Inhibitors with Improved Metabolic Stability” (International Journal of Molecular Sciences, 2020)",
  "tested_on": "SH-SY5Y cells",
  "test": "Neuroprotective activity toward H2O2 (MTT assay)",
  "format": "cell-based, human",
  "details": "5 μM, concomitant treatment with H2O2 100 μM",
  "description": "Next, we investigated the neuroprotective effects of (R)-28 in SH-SY5Y cells against the neurotoxicity induced by neurotoxins. These included hydrogen peroxide (H2O2, 100 μM) and amyloid-β 1–42 oligomers (OAβ1−42, 10 μM), that mimic general oxidative stress and Alzheimer’s disease (AD), respectively. […] Still, these neuroprotective effects against the oxidative stress underline the potential usefulness of inhibitor (R)-28 in the AD therapeutic area.\n5. Investigation of Cellular GSK-3α/β Inhibition by (R)-28 and Its Neuroprotective Effects […]\nSH-SY5Y cells were seeded in a 96-well plate at 2 × 10^4 cells/well, incubated for 24 h and then treated with various concentrations (1.25–40 µM) of (R)-28 for 24 h. Cell viability, in terms of mitochondrial activity, was evaluated by MTT assay, as previously described. […]\nSH-SY5Y cells were seeded in a 96-well plate at 2 × 10^4 cells/well, incubated for 24 h and subsequently treated with (R)-28 (5 µM) and H 2O2 (100 µM) for 1 h. […] The neuroprotective activity was measured by using the MTT assay as previously described . Data are expressed as a percentage of neurotoxicity versus untreated cells. […]\nSH-SY5Y cells were seeded in a 96-well plate at 3 × 10^4 cells/well, incubated for 24 h, and subsequently treated with (R)-28 (5 µM) and OAβ 1-42 (10 µM) for 4 h. The neuroprotective activity was measured by using the MTT assay as previously described. […]",
  "data": [
    {"compound": "CCC(=O)N1CCC[C@@H](N(C)c2ncnc3[nH]c4cc(Br)ccc4c23)C1", "note": "[Compound (R)-28, (R)-1-(3-((7-bromo-9H-pyrimido[4,5-b]indol-4-yl)(methyl)amino)piperidin-1-yl)propan-1-one]", "values": [
      {"measurement": "neurotoxicity elicited by H2O2", "value": "significantly decreased the neurotoxicity"}
    ]}
  ]
}
